From patent publication US20240174662A1, “SMALL MOLECULE INHIBITORS OF SALT INDUCIBLE KINASES” (Janssen Biotech, Inc., priority 2021, published 2024) come the findings set out here.

Values joined by “and” are separate entries in the source; they are usually repeats but may differ in a detail not shown here. Identical values can stand only once.

The term IC50 denotes the point on the concentration scale where inhibition reaches its midpoint.

For this experiment, the target named is SIK2 (Homo sapiens (Human), UniProt Q9H0K1). The experiment can be described thus: SIK2 Enzymatic Assay Version 2 (High ATP). The experiment is classed as biochemical. Conditions: 3 mM ATP and 200 μM HDAC5tide final, ADP-Glo Max luminescence. The method in brief: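 Run at room temperature; SIK2 enzyme at 6 nM (2× final) preincubated with compound 30 min before reaction. ADP formation detected by ADP-Glo Max (2 h reagent, 1 h detection) with luminescence read-out.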
SIK2, sequence (Q9H0K1 whole entry, species assumed): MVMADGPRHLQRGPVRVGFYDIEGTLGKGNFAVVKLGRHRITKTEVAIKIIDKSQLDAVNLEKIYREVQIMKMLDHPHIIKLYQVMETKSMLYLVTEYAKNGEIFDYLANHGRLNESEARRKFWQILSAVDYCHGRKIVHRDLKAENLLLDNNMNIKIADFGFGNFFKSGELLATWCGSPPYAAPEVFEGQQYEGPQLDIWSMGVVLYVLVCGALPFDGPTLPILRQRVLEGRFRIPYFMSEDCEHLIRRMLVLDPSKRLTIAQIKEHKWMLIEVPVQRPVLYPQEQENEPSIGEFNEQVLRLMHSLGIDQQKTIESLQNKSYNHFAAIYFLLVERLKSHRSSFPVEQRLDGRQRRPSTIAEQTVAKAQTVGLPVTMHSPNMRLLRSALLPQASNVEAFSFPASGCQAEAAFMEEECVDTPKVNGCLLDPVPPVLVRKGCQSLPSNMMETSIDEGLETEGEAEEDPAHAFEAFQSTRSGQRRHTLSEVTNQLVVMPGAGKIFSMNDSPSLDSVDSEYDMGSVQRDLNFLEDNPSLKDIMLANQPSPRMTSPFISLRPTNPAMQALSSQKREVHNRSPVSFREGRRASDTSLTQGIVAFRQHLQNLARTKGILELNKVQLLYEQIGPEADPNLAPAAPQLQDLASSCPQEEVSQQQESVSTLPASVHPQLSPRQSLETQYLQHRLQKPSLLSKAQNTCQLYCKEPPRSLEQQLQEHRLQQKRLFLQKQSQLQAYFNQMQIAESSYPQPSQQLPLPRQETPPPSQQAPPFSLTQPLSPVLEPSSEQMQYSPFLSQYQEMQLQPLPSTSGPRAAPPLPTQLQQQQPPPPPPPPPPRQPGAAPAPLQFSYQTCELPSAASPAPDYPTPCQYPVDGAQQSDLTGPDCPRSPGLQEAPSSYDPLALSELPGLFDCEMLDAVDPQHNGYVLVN
In the case of `Cc1onc(OC[C@H]2NCC2(C)C)c1-c1ccn2nc(NC(=O)C3CC3)cc2c1` [Example 89, N-[5-[3-[[(2S)-3,3-dimethylazetidin-2-yl]methoxy]-5-methyl-isoxazol-4-yl]pyrazolo[1,5-a]pyridin-2-yl]cyclopropanecarboxamide], the IC50 was 0.0159 µM.
As for `CC[C@@H]1CN(C)[C@@H]1COc1cnn(C)c1-c1ccn2nc(NC(=O)C3CC3)cc2c1` [Example 11, N-[5-[4-[[(2S,3R)-3-ethyl-1-methyl-azetidin-2-yl]methoxy]-2-methyl-pyrazol-3-yl]pyrazolo[1,5-a]pyridin-2-yl]cyclopropanecarboxamide], the 50% inhibitory concentration (IC50) stood at 0.117 µM.
Turning to `CCN1CC[C@@H]1COc1cnn(C)c1-c1ccn2nc(Nc3cnc(C(=O)OC)cn3)cc2c1` [Example 311, methyl 5-[[5-[4-[[(2R)-1-ethylazetidin-2-yl]methoxy]-2-methyl-pyrazol-3-yl]pyrazolo[1,5-a]pyridin-2-yl]amino]pyrazine-2-carboxylate], the midpoint of inhibition, the IC50, lay at 0.0014 µM.
In turn, `Cc1cc(Nc2cc3cc(-c4c(CO[C@H]5CN(C)C[C@H]5C)cnn4C)ccn3n2)nc(C)n1` (stereo in doubt) [Example 368, CIS—*R, *R—N-(2,6-dimethylpyrimidin-4-yl)-5-[4-[(1,4-dimethylpyrrolidin-3-yl)oxymethyl]-2-methyl-pyrazol-3-yl]pyrazolo[1,5-a]pyridin-2-amine] yielded an IC50 of 0.0033 µM.
As for `Cc1cc(Nc2cc3cc(-c4c(O[C@H]5C[C@H]6CC[C@@H]5O6)cnn4C)ccn3n2)nc(C)n1` (single isomer, unassigned) [Example 352, (1*S, 2*S, 4*R)—N-(2,6-dimethylpyrimidin-4-yl)-5-[2-methyl-4-(7-oxabicyclo[2.2.1]heptan-3-yloxy)pyrazol-3-yl]pyrazolo[1,5-a]pyridin-2-amine], the figure is 0.0668 µM; as for `Cc1onc(OC[C@H](c2ccccc2)N(C)C)c1-c1ccn2nc(NC(=O)C3CC3)cc2c1` [Example 207, N-[5-[3-[(2S)-2-(dimethylamino)-2-phenyl-ethoxy]-5-methyl-isoxazol-4-yl]pyrazolo[1,5-a]pyridin-2-yl]cyclopropanecarboxamide], 0.0076 µM; as for `Cc1cnc(Nc2cc3cc(-c4c(OC[C@H]5CCN5C[C@H](C)O)cnn4C)ccn3n2)cn1` [Example 296, (2S)-1-[(2R)-2-[[1-methyl-5-[2-[(5-methylpyrazin-2-yl)amino]pyrazolo[1,5-a]pyridin-5-yl]pyrazol-4-yl]oxymethyl]azetidin-1-yl]propan-2-ol], 0.0062 µM.
Consider `CN1CC[C@@H](COc2cnn(C)c2-c2ccn3nc(NC(=O)C4CC4)cc3c2)C1` [Example 396, N-[5-[2-methyl-4-[[(3R)-1-methylpyrrolidin-3-yl]methoxy]pyrazol-3-yl]pyrazolo[1,5-a]pyridin-2-yl]cyclopropanecarboxamide], for which the IC50 is 0.0605 µM and 0.0932 µM.
As for `C[C@@H](O)CN1CC[C@@H]1COc1cnn(C)c1-c1ccn2nc(NC(=O)C3CC3)cc2c1` [Example 252, N-[5-[4-[[(2R)-1-[(2R)-2-hydroxypropyl]azetidin-2-yl]methoxy]-2-methyl-pyrazol-3-yl]pyrazolo[1,5-a]pyridin-2-yl]cyclopropanecarboxamide], the figure is 0.0094 µM; as for `CC(=O)CN1CC[C@@H]1COc1cnn(C)c1-c1ccn2nc(NC(=O)C3CC3)cc2c1` [Example 251, N-[5-[4-[[(2R)-1-acetonylazetidin-2-yl]methoxy]-2-methyl-pyrazol-3-yl]pyrazolo[1,5-a]pyridin-2-yl]cyclopropanecarboxamide], 0.0456 µM.
The figure for `Cn1ncc(OCC2(N)COC2)c1-c1ccn2nc(NC(=O)C3CC3)cc2c1` [Example 402, N-[5-[4-[(3-aminooxetan-3-yl)methoxy]-2-methyl-pyrazol-3-yl]pyrazolo[1,5-a]pyridin-2-yl]cyclopropanecarboxamide] is 0.0924 µM; for `CN1CC[C@H](Oc2cnn(C)c2-c2ccn3nc(Nc4cc(C(F)(F)F)ccn4)cc3c2)C1` [Example 340, 5-[2-methyl-4-[(3S)-1-methylpyrrolidin-3-yl]oxy-pyrazol-3-yl]-N-[4-(trifluoromethyl)-2-pyridyl]pyrazolo[1,5-a]pyridin-2-amine] it is 0.0554 µM; for `Cn1ncc(OC[C@@H](O)C(F)(F)F)c1-c1ccn2nc(NC(=O)C3CC3)cc2c1` (single isomer, unassigned) [Example 401, (*R)—N-[5-[2-methyl-4-(3,3,3-trifluoro-2-hydroxy-propoxy)pyrazol-3-yl]pyrazolo[1,5-a]pyridin-2-yl]cyclopropanecarboxamide] it is 0.107 µM.
As for `CN1C[C@H](c2ccccc2)C[C@@H]1COc1cnn(C)c1-c1ccn2nc(NC(=O)C3CC3)cc2c1` [Example 257, N-[5-[2-methyl-4-[[(2R,4S)-1-methyl-4-phenyl-pyrrolidin-2-yl]methoxy]pyrazol-3-yl]pyrazolo[1,5-a]pyridin-2-yl]cyclopropanecarboxamide], the figure is 0.0235 µM; as for `Cc1cc(Nc2cc3cc(-c4c(OC[C@@H](O)C5CCC5)cnn4C)ccn3n2)nc(C)n1` [Example 302, (S)-1-cyclobutyl-2-[5-[2-[(2,6-dimethylpyrimidin-4-yl)amino]pyrazolo[1,5-a]pyridin-5-yl]-1-methyl-pyrazol-4-yl]oxy-ethanol], 0.0283 µM; as for `COC[C@@H]1C[C@H](Oc2noc(C)c2-c2ccn3nc(Nc4cc(C)c(C)nn4)cc3c2)CN1` [Example 390, N-(5,6-dimethylpyridazin-3-yl)-5-[3-[(3S,5S)-5-(methoxymethyl)pyrrolidin-3-yl]oxy-5-methyl-isoxazol-4-yl]pyrazolo[1,5-a]pyridin-2-amine], 0.0708 µM.
Turning to `CCN1CC[C@@H]1COc1cnn(C(F)F)c1-c1ccn2nc(Nc3cnn(C)c3)cc2c1` [Example 104, 5-[2-(difluoromethyl)-4-[[(2R)-1-ethylazetidin-2-yl]methoxy]pyrazol-3-yl]-N-(1-methylpyrazol-4-yl)pyrazolo[1,5-a]pyridin-2-amine], half-maximal inhibition (IC50) was put at 0.0169 µM.
In the case of `Cc1cnnc(Nc2cc3cc(-c4c(OC[C@H]5CCN5C)cnn4C)ccn3n2)c1` [Example 141, 5-[2-methyl-4-[[(2R)-1-methylazetidin-2-yl]methoxy]pyrazol-3-yl]-N-(5-methylpyridazin-3-yl)pyrazolo[1,5-a]pyridin-2-amine], the IC50 is 0.001 µM.
In the case of `CN1CC[C@@H]1COc1cnn(C)c1-c1ccn2nc(NC(=O)[C@H]3C[C@@H]3C(F)(F)F)cc2c1` (racemic) [Example 70, trans-N-[5-[2-methyl-4-[((2R)-1-methylazetidin-2-yl)methoxy]pyrazol-3-yl]pyrazolo[1,5-a]pyridin-2-yl]-2-(trifluoromethyl)cyclopropanecarboxamide], 0.219 µM corresponded to half-maximal inhibition (IC50).
Molecule `Cc1cc(Nc2cc3cc(-c4c(OC[C@]5(O)CCOC5)cnn4C)ccn3n2)nc(C)n1` (single isomer, unassigned) [Example 439, (*S)-3-[[5-[2-[(2,6-dimethylpyrimidin-4-yl)amino]pyrazolo[1,5-a]pyridin-5-yl]-1-methyl-pyrazol-4-yl]oxymethyl]tetrahydrofuran-3-ol] gave an IC50 of 0.174 µM.
As for `Cn1ncc(CO[C@H]2CCNC2)c1-c1ccn2nc(NC(=O)C3CC3)cc2c1` [Example 363, N-[5-[2-methyl-4-[[(3S)-pyrrolidin-3-yl]oxymethyl]pyrazol-3-yl]pyrazolo[1,5-a]pyridin-2-yl]cyclopropanecarboxamide], the figure is 0.0519 µM; as for `CN1CC[C@@H]1COc1cnn(C)c1-c1ccn2nc(NC(=O)[C@@H]3C[C@@H]3F)cc2c1` [Example 69, (1S,2S)-2-fluoro-N-[5-[2-methyl-4-[[(2R)-1-methylazetidin-2-yl]methoxy]pyrazol-3-yl]pyrazolo[1,5-a]pyridin-2-yl]cyclopropanecarboxamide], 0.0303 µM; as for `Cc1cc(Nc2cc3cc(-c4c(OC[C@H]5CCN5)cnn4C(F)F)ccn3n2)nc(C)n1` [Example 260, 5-[4-[[(2R)-azetidin-2-yl]methoxy]-2-(difluoromethyl)pyrazol-3-yl]-N-(2,6-dimethylpyrimidin-4-yl)pyrazolo[1,5-a]pyridin-2-amine], 0.0376 µM.
Regarding `CN1CC[C@@H]1COc1cnn(C)c1-c1ccn2nc(NC(=O)[C@H]3C[C@H]3c3ccccc3)cc2c1` (single isomer, unassigned) [Example 159, (1*S,2*R)—N-(5-(1-methyl-4-(((R)-1-methylazetidin-2-yl)methoxy)-1H-pyrazol-5-yl)pyrazolo[1,5-a]pyridin-2-yl)-2-phenylcyclopropane-1-carboxamide], the IC50 turned out to be 0.0242 µM.
As for `COCCNC(=O)c1ccc(Nc2cc3cc(-c4c(OC[C@H]5CCN5C)cnn4C)ccn3n2)nc1` [Example 107, N-(2-methoxyethyl)-6-[[5-[2-methyl-4-[[(2R)-1-methylazetidin-2-yl]methoxy]pyrazol-3-yl]pyrazolo[1,5-a]pyridin-2-yl]amino]pyridine-3-carboxamide], the figure is 0.0033 µM.
The figure for `CCn1ncc(OC[C@H]2CCN2C)c1-c1ccn2nc(Nc3cc(C)nc(C)n3)cc2c1` [Example 130, N-(2,6-dimethylpyrimidin-4-yl)-5-[2-ethyl-4-[[(2R)-1-methylazetidin-2-yl]methoxy]pyrazol-3-yl]pyrazolo[1,5-a]pyridin-2-amine] is under 0.000847 µM; for `Cc1ccc(Nc2cc3cc(-c4c(O[C@H]5CCN(C)C5)cnn4C)ccn3n2)cn1` [Example 451, 5-[2-methyl-4-[(3S)-1-methylpyrrolidin-3-yl]oxy-pyrazol-3-yl]-N-(6-methyl-3-pyridyl)pyrazolo[1,5-a]pyridin-2-amine] it is 0.107 µM; for `CC(C)N1CC[C@@H]1COc1cnn(C)c1-c1ccn2nc(NC(=O)C3CC3)cc2c1` [Example 53, N-[5-[4-[[(2R)-1-isopropylazetidin-2-yl]methoxy]-2-methyl-pyrazol-3-yl]pyrazolo[1,5-a]pyridin-2-yl]cyclopropanecarboxamide] it is 0.0683 µM.
